From ChEMBL document CHEMBL3108745, “Synthesis and structure-activity relationship of 3-hydroxypyridine-2-thione-based histone deacetylase inhibitors” (J Med Chem, 2013)
Calls of active or inactive are those of the source. The calls are words filed in the database; no cut-off is given here.

How the values were obtained:
[1] = target: T1, Protein deacetylase HDAC6 (Homo sapiens) (UniProt Q9UBN7); test: Inhibition of HDAC6 (unknown origin) expressed in Escherichia coli BL21 (DE3) using GRKacYGC as substrate at 10 uM after 60 mins by SAMDI mass spectrometric analysis relative to control
T1 sequence (whole entry): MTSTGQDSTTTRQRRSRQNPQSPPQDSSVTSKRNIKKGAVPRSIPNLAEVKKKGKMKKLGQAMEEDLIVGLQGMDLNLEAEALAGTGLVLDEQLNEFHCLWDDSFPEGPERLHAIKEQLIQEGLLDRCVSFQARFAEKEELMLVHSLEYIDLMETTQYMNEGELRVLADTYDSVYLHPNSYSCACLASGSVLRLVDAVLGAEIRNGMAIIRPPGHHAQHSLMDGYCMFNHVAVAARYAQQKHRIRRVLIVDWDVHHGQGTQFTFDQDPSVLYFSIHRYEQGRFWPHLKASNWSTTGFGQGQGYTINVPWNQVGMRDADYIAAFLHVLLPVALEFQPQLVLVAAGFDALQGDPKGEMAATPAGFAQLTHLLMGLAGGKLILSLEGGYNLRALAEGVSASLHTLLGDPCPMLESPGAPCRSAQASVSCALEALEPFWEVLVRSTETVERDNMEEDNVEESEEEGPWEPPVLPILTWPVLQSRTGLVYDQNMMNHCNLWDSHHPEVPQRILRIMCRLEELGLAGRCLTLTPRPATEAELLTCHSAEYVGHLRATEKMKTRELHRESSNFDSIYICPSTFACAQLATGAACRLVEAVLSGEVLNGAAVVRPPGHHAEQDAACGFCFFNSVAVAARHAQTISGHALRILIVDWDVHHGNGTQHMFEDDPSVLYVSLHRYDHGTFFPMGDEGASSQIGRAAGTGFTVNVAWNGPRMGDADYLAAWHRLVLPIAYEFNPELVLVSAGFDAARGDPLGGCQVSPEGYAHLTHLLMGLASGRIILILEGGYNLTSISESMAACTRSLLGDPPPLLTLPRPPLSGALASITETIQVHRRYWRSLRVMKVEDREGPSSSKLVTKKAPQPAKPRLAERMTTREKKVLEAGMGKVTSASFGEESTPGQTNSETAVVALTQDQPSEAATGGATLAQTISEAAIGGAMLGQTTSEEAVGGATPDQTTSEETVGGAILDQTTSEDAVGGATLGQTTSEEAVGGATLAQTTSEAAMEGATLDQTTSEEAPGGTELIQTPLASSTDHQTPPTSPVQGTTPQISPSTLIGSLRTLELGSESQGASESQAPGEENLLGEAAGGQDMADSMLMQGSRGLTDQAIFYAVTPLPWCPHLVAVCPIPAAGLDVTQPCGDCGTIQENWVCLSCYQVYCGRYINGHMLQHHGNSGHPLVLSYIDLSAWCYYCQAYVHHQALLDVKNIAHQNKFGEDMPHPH

[2] = target: Histone deacetylase 1 (Homo sapiens) (UniProt Q13547); test: Inhibition of HDAC1 (unknown origin) expressed in Escherichia coli BL21 (DE3) using GRKacFGC as substrate at 10 uM after 60 mins by SAMDI mass spectrometric analysis relative to control
Sequence of Histone deacetylase 1 (Homo sapiens) (Q13547 whole entry): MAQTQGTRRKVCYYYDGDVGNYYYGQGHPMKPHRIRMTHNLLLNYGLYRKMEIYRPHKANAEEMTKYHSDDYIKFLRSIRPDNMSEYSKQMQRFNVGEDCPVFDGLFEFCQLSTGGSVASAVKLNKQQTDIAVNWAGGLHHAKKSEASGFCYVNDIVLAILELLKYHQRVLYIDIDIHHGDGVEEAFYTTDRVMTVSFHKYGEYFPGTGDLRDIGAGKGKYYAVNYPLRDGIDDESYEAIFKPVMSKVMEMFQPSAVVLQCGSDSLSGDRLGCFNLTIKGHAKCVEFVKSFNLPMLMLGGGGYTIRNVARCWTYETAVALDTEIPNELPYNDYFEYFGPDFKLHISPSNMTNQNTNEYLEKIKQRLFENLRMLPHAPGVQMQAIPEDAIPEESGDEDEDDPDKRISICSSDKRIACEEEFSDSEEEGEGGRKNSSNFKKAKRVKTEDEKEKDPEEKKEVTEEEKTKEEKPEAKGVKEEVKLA

[3] = tested on: Jurkat; test: cells; assay type: functional, cell-based; conditions: Homo sapiens, 72 h
Description: Cytotoxicity against human Jurkat cells assessed as growth inhibition after 72 hrs by MTS assay

[4] = tested on: DU-145; test: cells; assay type: functional, cell-based; conditions: Homo sapiens, DU-145, 72 h
Description: Cytotoxicity against androgen-independent human DU145 cells assessed as growth inhibition after 72 hrs by MTS assay

[5] = Aqueous solubility of the compound […] at room temperature by UV-vis spectrophotometric analysis; assay type: physicochemical
[6] = target: T2, Histone deacetylase 8 (Homo sapiens, UniProt Q9BY41); test: Inhibition of HDAC8 catalytic domain (unknown origin) expressed in Escherichia coli BL21 (DE3) using GRKacFGC as substrate after 60 mins by SAMDI mass spectrometric analysis
T2 sequence (Q9BY41 whole entry): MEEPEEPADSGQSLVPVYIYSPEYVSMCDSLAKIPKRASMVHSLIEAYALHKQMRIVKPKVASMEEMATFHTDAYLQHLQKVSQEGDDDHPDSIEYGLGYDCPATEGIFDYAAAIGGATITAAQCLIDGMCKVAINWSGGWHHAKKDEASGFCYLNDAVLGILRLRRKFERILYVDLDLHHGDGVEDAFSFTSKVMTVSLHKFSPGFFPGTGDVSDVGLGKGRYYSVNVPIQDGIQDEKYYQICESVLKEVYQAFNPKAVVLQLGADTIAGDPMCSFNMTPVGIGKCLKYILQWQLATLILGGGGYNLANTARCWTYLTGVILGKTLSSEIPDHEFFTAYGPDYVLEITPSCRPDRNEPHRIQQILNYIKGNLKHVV

[7] = target: T3, Protein deacetylase HDAC6 (Homo sapiens, UniProt Q9UBN7); test: Inhibition of HDAC6 (unknown origin) expressed in Escherichia coli BL21 (DE3) using GRKacYGC as substrate after 60 mins by SAMDI mass spectrometric analysis
T3 sequence (Q9UBN7 whole entry): T1 sequence (whole entry)

[8] = tested on: LNCaP; test: cells; conditions: Homo sapiens, 72 h
Description: Cytotoxicity against androgen-dependent human LNCAP cells assessed as growth inhibition after 72 hrs by MTS assay

[9] = target: T4, Histone deacetylase 8 (Homo sapiens) (UniProt Q9BY41); test: Inhibition of HDAC8 catalytic domain (unknown origin) expressed in Escherichia coli BL21 (DE3) using GRKacFGC as substrate at 10 nM to 1 mM after 60 mins by SAMDI mass spectrometric analysis
T4 sequence (whole entry): T2 sequence (Q9BY41 whole entry)

[10] = target: Histone deacetylase 1 (Homo sapiens) (UniProt Q13547); test: Inhibition of HDAC1 (unknown origin) expressed in Escherichia coli BL21 (DE3) using GRKacFGC as substrate at 10 nM to 1 mM after 60 mins by SAMDI mass spectrometric analysis
[11] = target: T1, Protein deacetylase HDAC6 (Homo sapiens); test: Inhibition of HDAC6 (unknown origin) expressed in Escherichia coli BL21 (DE3) using GRKacYGC as substrate at 10 nM to 1 mM after 60 mins by SAMDI mass spectrometric analysis
[12] = Cytotoxicity against human Jurkat gamma1 cells assessed as growth inhibition after 72 hrs by MTS assay; assay type: functional, cell-based
[13] = tested on: Vero; test: Cytotoxicity against African green monkey Vero cells assessed as growth inhibition after 72 hrs by MTS assay; assay type: cell-based; conditions: Chlorocebus sabaeus

Row | Compound | inhibition [2] | inhibition [9] | inhibition [10] | inhibition [11] | other results
1 | Oc1cccn(Cc2cn(-c3ccccc3)nn2)c1=S | < 20% |  |  |  | inhibition [1]: 41%
2 | Cc1ccccc1-c1cn(CCCCCn2cccc(O)c2=S)nn1 | < 20% |  |  |  | IC50 [3]: 5.18 µM; IC50 [4]: 11.1 µM; solubility [5]: soluble; IC50 [6]: 2.4 µM; IC50 [7]: 0.637 µM; IC50 [8]: 4.95 µM
3 | CN(C)c1ccc(-c2cn(CCCCCn3cccc(O)c3=S)nn2)cc1 | < 20% |  |  |  | 
4 | Cc1cccc(-c2cn(CCCCCn3cccc(O)c3=O)nn2)c1 |  | inactive | inactive | inactive | 
5 | O=c1c(O)cccn1CCCn1cc(-c2ccccc2)nn1 |  | inactive | inactive | inactive | 
6 | O=c1c(O)cccn1CCCCCCn1cc(-c2ccccc2)nn1 |  | inactive | inactive | inactive | 
7 | Oc1cccn(CCCCCCCn2cc(-c3ccccc3)nn2)c1=S | < 20% |  |  |  | IC50 [3]: 9.04 µM; IC50 [12]: > 20 µM; IC50 [4]: 17.7 µM; solubility [5]: soluble; IC50 [6]: 1.38 µM; IC50 [7]: 0.955 µM; IC50 [8]: 11 µM
8 | CN1CCc2c(c3ccccc3n2Cc2ccc(C(=O)NO)cc2)C1 [TUBASTATIN A] |  |  |  |  | IC50 [3]: 3.38 µM; IC50 [13]: > 20 µM; IC50 [8]: 10.9 µM
9 | O=c1c(O)cccn1CCCCn1cc(-c2ccccc2)nn1 |  | inactive | inactive | inactive | 
10 | O=c1c(O)cccn1CCn1cc(-c2ccccc2)nn1 |  | inactive | inactive | inactive | 
11 | N#Cc1ccc(-c2cn(CCCCCn3cccc(O)c3=O)nn2)cc1C(F)(F)F |  | inactive | inactive | inactive | 
12 | Cc1cccc(-c2cn(CCCCCn3cccc(O)c3=S)nn2)c1 | < 20% |  |  |  | IC50 [6]: 1.66 µM; IC50 [7]: 1.1 µM
13 | N#Cc1ccc(-c2cn(CCCCCn3cccc(O)c3=S)nn2)cc1C(F)(F)F | < 20% |  |  |  | 
14 | O=c1c(O)cccn1CCCCCn1cc(-c2ccccc2)nn1 |  | inactive | inactive | inactive | 
15 | Oc1cccn(CCCCn2cc(-c3ccccc3)nn2)c1=S | < 20% |  |  |  | IC50 [6]: 3.3 µM; IC50 [7]: 1.08 µM
16 | Oc1cccn(CCn2cc(-c3ccccc3)nn2)c1=S | < 20% |  |  |  | inhibition [1]: 14%
17 | Cc1ccc(-c2cn(CCCCCn3cccc(O)c3=O)nn2)cc1 |  | inactive | inactive | inactive | 

More lines, main results first:

Row | inhibition [2] | inhibition [9] | inhibition [10] | inhibition [11] | Compound | other results
18 |  | inactive | inactive | inactive | N#Cc1ccc(-c2cn(CCCCCn3cccc(O)c3=O)nn2)cc1 | 
19 | < 20% |  |  |  | Oc1cccn(CCCCCCn2cc(-c3ccccc3)nn2)c1=S | inhibition [1]: 22%; IC50 [6]: 6.75 µM
20 |  | inactive | inactive | inactive | N#Cc1cccc(-c2cn(CCCCCn3cccc(O)c3=O)nn2)c1 | 
21 | < 20% |  |  |  | Oc1cccn(CCCn2cc(-c3ccccc3)nn2)c1=S | IC50 [7]: 3.63 µM
22 | < 20% |  |  |  | N#Cc1ccc(-c2cn(CCCCCn3cccc(O)c3=S)nn2)cc1 | 
23 |  | inactive | inactive | inactive | CN(C)c1ccc(-c2cn(CCCCCn3cccc(O)c3=O)nn2)cc1 | 
24 | < 20% |  |  |  | Cc1ccc(-c2cn(CCCCCn3cccc(O)c3=S)nn2)cc1 | IC50 [6]: 2.53 µM; IC50 [7]: 0.807 µM
25 |  | inactive | inactive | inactive | O=c1c(O)cccn1CCCCCCCn1cc(-c2ccccc2)nn1 | 
26 |  | inactive | inactive | inactive | Cc1ccccc1-c1cn(CCCCCn2cccc(O)c2=O)nn1 | 
